Values joined by “and” are separate entries in the source; they are usually repeats but may differ in a detail not shown here. Equal values may be shown once. “Also recorded” adds a separate entry of the source.
How the values were obtained:
[1] = test system: STZ-induced type 1 diabetic rats; assay: Oral glucose tolerance test in type 1 diabetic rat model; format: in vivo; settings: for Blood glucose level in OGTT: glucose 2 g/kg oral
Description: (§1) STZ was administered to Sprague Dawley (SD) male 5-week-old rats on day 0 (G2 to G7, excluding G1), and non-fasting blood glucose levels were measured on day 3 to determine whether type 1 diabetes was induced. On day 7, the experimental substances were administered to each group, and blood and urine samples were collected at 6 h, 24 h, 48 h, and 72 h to measure non-fasting blood glucose levels. On day 14 of the experiment, the experimental animals were fasted for 16 h, and on day 15, 2 g/kg of glucose solution was orally administered after the experimental substances were administered. Thereafter, blood glucose levels were measured at 15, 30, 60, 90, and 120 minutes after glucose administration. After blood collection, the serum was separated, and the IL-6 inflammatory response was evaluated using an interleukin-6 (IL-6) enzyme-linked immunosorbent assay (ELISA) kit.

SGLT1 = biological target: T1, SGLT1 (Homo sapiens, UniProt P13866); assay: Inhibition of [14C]AMG uptake in SGLT1-overexpressing CHO cells; format: cell-based; settings: IC50 (nM) SGLT1 mean ± SD (n = 3), 10 μM [14C]AMG, 2 h, 37° C.
T1 construct: expressed in transfected cells
T1 sequence (P13866 1-664): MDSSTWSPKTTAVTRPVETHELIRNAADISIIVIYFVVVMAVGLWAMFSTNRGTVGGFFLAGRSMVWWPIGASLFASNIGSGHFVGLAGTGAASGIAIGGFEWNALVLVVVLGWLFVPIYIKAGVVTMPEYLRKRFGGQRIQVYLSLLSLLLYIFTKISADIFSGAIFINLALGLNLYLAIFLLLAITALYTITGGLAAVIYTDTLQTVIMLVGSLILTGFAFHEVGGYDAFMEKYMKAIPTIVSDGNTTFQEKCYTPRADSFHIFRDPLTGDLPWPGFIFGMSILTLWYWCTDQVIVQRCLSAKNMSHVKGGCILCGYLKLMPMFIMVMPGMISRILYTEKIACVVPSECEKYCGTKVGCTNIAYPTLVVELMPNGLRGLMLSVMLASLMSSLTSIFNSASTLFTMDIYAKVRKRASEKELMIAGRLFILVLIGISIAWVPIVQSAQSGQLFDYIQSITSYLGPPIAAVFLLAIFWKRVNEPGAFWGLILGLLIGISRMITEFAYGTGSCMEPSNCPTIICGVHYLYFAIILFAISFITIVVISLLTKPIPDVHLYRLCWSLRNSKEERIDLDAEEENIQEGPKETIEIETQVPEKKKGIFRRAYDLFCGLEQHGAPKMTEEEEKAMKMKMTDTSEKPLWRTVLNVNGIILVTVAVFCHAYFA
Description: An SGLT1-overexpressing cell line (CHO-SGLT1 stable cells) and mock cells (CHO-mock cells) were cultured to reach 80% confluency, and then the cells were seeded in 96-well plates at 1×10^5 cells/well.
After 24 hours, the medium was removed, and a pre-incubation buffer [10 mM hydroxyethylpiperazine ethane sulfonic acid (HEPES), 5 mM Tris, 140 mM choline chloride, 2 mM KCl, 1 mM CaCl2), 1 mM MgCl2, pH 7.4] was added, and the cells were cultured for one hour.
After one hour, the pre-incubation buffer was removed, and an incubation buffer [10 mM HEPES, 5 mM Tris, 140 mM NaCl, 2 mM KCl, 1 mM CaCl2), 1 mM MgCl2, pH 7.4] containing 10 μM [^14C] methyl α-D-glucopyranoside (AMG), a substrate of SGLT1, and inhibitory evaluation substances at various concentrations was added and allowed to react in a thermo micro mixer at 37° C. for two hours.
After a preset time, the cells were washed twice with 200 μL of ice-cold washing buffer [10 mM HEPES, 5 mM Tris, 140 mM choline chloride, 2 mM KCl, 1 mM CaCl2), 1 mM MgCl2, 100 mM AMG, pH 7.4].
After removing the medium, 40 μL of 10% sodium dodecyl sulfate (SDS) solution was added to lyse the cells, and then the samples were transferred to a measurement plate of a liquid scintillation counter, and 150 μL of OptiPhase Supermix®, an isotope measurement cocktail solution, was added, and the cells were incubated overnight to ensure that the cell solution was homogeneously mixed with the cocktail solution.
[^14C]AMG in the samples was measured using the liquid scintillation counter.
At this time, the inhibitory effect Sigmoid Emax model was used, and the WinNonlin program (ver. 2.0) was utilized. All data values were expressed as the mean±standard deviation (SD) of three independent experiments.

interleukin-6 (IL-6) = assay: Serum IL-6 ELISA in type 1 diabetic rat model; format: in vivo; settings: STZ rats, 6, 24, 48, 72 hours after administration
Description: as §1

normal rats = assay: Urinary glucose excretion (UGE) after intravenous administration; format: in vivo, rat; settings: 1 mg/kg intravenous, 6-72 hours
Description: Enavogliflozin, M1, or M2 was intravenously administered once to normal rats, and antidiabetic efficacy was evaluated.
To perform the oral glucose tolerance test (OGTT) and examine urinary glucose excretion (UGE), enavogliflozin, M1, or M2 was administered intravenously to male 8-week-old normal rats at a dose of 1 mg/kg, and then a glucose solution (2 g/kg) was administered to load blood sugar. The blood sugar level was measured before glucose solution administration and at 5, 10, 15, 20, 30, 40, 60, 90, and 120 minutes after the administration to evaluate oral glucose tolerance. In addition, the UGE was evaluated by measuring the amount of glucose excreted in the urine 6, 24, 48, and 72 hours after the administration of the glucose solution.

[2] = test system: STZ-induced type 1 diabetic rats; assay: Non-fasting blood glucose in type 1 diabetic rat model; format: in vivo; settings: 1 mg/kg single intravenous dose
Description: as §1

[3] = Half-life of M2 (rapid dissipation); settings: in vivo

IC50 (SGLT1) | half-life [3] | SMILES | Blood glucose level in OGTT ([1]; STZ rats, 1 mg/kg) | Change in IL-6 level (interleukin-6 (IL-6)) | Urinary glucose excretion (UGE) (normal rats) | Non-fasting blood sugar level [2] | AUC of blood glucose in OGTT ([1]; STZ rats, 1 mg/kg) | Dose dependence of glucose tolerance in OGTT ([1]; STZ rats, 0.01, 0.1, 1 mg/kg)
861 ± 59.4 nM | – | OC[C@H]1O[C@@H](c2cc(Cc3ccc(C4CC4)cc3)c(Cl)c3c2CCO3)[C@H](O)[C@@H](O)[C@@H]1O [Enavogliflozin, (2S,3R,4R,5S,6R)-2-(7-chloro-6 (4-cyclopropylbenzyl)-2,3-dihydrobenzofuran-4-yl)-6-(hydroxymethyl)tetrahydro-2H-pyran-3,4,5-triol] | lowering of the blood glucose level was observed | slight decrease | – | – | – | –
~28.4 nM and 28.4 nM | – | OC[C@H]1O[C@@H](c2cc(Cc3ccc(C4CC4)cc3)c(Cl)c3c2CC(O)O3)[C@H](O)[C@@H](O)[C@@H]1O (stereo partly drawn) [M1, (2S,3R,4R,5S,6R)-2-(7-chloro-6-(4-cyclopropylbenzyl)-2-hydroxy-2,3-dihydrobenzofuran-4-yl)-6-(hydroxymethyl)tetrahydro-2H-pyran-3,4,5-triol] | fastest and strongest blood glucose lowering effect | significant decrease in all dose groups | UGE was observed from six hours after intravenous administration; also recorded: similar | lowest blood sugar level at 48 hours after administration | best oral glucose tolerance improvement effect | dose-dependent improvement in glucose tolerance
1220 ± 165 nM | 48 min | OC[C@H]1O[C@@H](c2cc(Cc3ccc(C4(O)CC4)cc3)c(Cl)c3c2CCO3)[C@H](O)[C@@H](O)[C@@H]1O [M2, (2S,3R,4R,5S,6R)-2-(7-chloro-6-(4-(1-hydroxycyclopropyl)benzyl)-2,3-dihydrobenzofuran-4-yl)-6-(hydroxymethyl)tetrahydro-2H-pyran-3,4,5-triol] | – | – | UGE was observed from six hours after intravenous administration; also recorded: less glucose was excreted than enavogliflozin and M1 for up to 24 hours | – | – | –

Source: patent publication US20260124170A1, “PHARMACEUTICAL COMPOSITION COMPRISING METABOLITE OF ENAVOGLIFLOZIN, AND USE THEREOF” (DAEWOONG PHARMACEUTICAL CO., LTD., priority 2022, published 2026)
